Source: patent publication US20130243741A1, “RENILLA/GAUSSIA TRANSFECTED CELLS AS A LIGHT SOURCE FOR IN-SITU PHOTODYNAMIC THERAPY OF CANCER” (KANSAS STATE UNIVERSITY RESEARCH FOUNDATION, priority 2010, published 2013)
Each block holds one molecule with its values, some of them ahead of it.

How the values were obtained:
[1] = tested on: 4T1luc2 breast cancer tumors; assay: Deep-tissue PDT treatment of metastatic 4T1 breast cancer in mice; assay type: in vivo, BALB C mice; conditions: DFO 300 mg/kg i.p.; p-value: 0.65
Description: In this Example, PDT using in-situ generation of light was used to treat metastatic breast cancer in BALB C mice. ALA was used as the only photosensitizer/prodrug, and DFO was used as the iron chelator. The mice were divided into three treatment groups as follows. On Day 0, the mice were inoculated with 4T1luc2 breast cancer cells (100,000/mouse, i.v.). On Day 3, 25 million NSCs were plated as described above for transfection. On Day 4, the cells were transfected with Glue. On Day 5, IVIS imaging with D-luciferin was carried out in the morning to determine tumor size and stratification of the mice. In the afternoon, the mice in Groups 2 and 3 were injected with the transfected cells (1 million/mouse). On Day 7, DFO was administered i.p. (300 mg/kg), as described above. On Day 8, the photosensitizing agent, ALA, was injected i.p. (100 mg/kg). Four hours later, cyclodextrin-complexed coelenterazine was administered i.v. (100 μg) into the tail vein of each mouse. The ALA/coelenterazine procedure was repeated on Day 9, and then on Day 10. The control groups were injected with PBS.

[2] = tested on: B16F10 mouse melanoma cells; assay: LED/PDT irradiation experiment with MTT cell proliferation readout; assay type: cell-based; conditions: no irradiation, RuC2 at 8×10^−5 M
Description: LED-irradiation experiments employing RL5-B12120 Superbright LED's, (Qmax=470 nm, light output 0.0114±0.0008 W) and a light-attenuation system consisting of a series of parallel optical filters was performed. After trypsinization, B16F10 mouse melanoma cells were counted using a hemacytometer and the trypan blue exclusion method, and plated in tissue culture plates (TPP brand, Midwest Scientific). Four hours post-plating, RuC2, TCPP, or a 1:1 mixture of RuC2 and TCPP was added to the plates, with the 1:1 mixture containing each agent at half their respective concentrations to permit comparisons at the same molar concentrations of PDT-agents. The cells were then stored in the dark for 24 hours. Next, the cells were irradiated with high or low intensity of LED light for 45 min. Twenty-four hours post-radiation, MTT cell proliferation reagent (thiazolyl blue) was added to the cells, which were then incubated four hours. Next, SDS-solubilization buffer was added and the cells were incubated for 12 hours. The plates were then read using a plate reader (Spectramax 190) at 550 nm and 690 nm (background establishment).

[3] = cited from earlier work
Redox potentials of RuC2 = assay type: physicochemical

Structure (SMILES): CC(=O)N(O)CCCCCNC(=O)CCC(=O)N(O)CCCCCNC(=O)CCC(=O)N(O)CCCCCN [DFO, deferoxamine]
effect of the iron chelator on tumor growth [1]: mild effect in suppressing tumor growth

Structure (SMILES): O=C(O)c1ccc(-c2c3nc(c(-c4ccc(C(=O)O)cc4)c4ccc([nH]4)c(-c4ccc(C(=O)O)cc4)c4nc(c(-c5ccc(C(=O)O)cc5)c5ccc2[nH]5)C=C4)C=C3)cc1 [TCPP, tetrakis-4-carboxyphenyl-porphyrin]
growth inhibition in the absence of irradiation [2]: zero

Structure (SMILES): O=c1c(Cc2ccc(O)cc2)nc2c(Cc3ccccc3)[nH]c(-c3ccc(O)cc3)cn1-2 [coelenterazine, 2-(4-hydroxybenzyl)-6-(4-hydroxyphenyl)-8-(phenylmethyl)imidazo[1,2-a]pyrazin-3(7H)-one]
long-term stability ([3]; commercially available material): not long-term stable
water solubility ([3]; native form): low

E0 Ru^2+/1+ (Redox potentials of RuC2): −0.477 V
photochemical reduction potential E0*Ru^2+/1+ (Redox potentials of RuC2): 1.670 V
oxidation potential E0 Ru^3+/2 (Redox potentials of RuC2; vs. SHE, pH=7.0): 1.537 V
Structure (SMILES): O=C(O)CC[n+]1ccc(-c2ccnc(-c3cc(-c4cc[n+](CCC(=O)O)cc4)ccn3)c2)cc1.O=C(O)CC[n+]1ccc(-c2ccnc(-c3cc(-c4cc[n+](CCC(=O)O)cc4)ccn3)c2)cc1.O=C(O)CC[n+]1ccc(-c2ccnc(-c3cc(-c4cc[n+](CCC(=O)O)cc4)ccn3)c2)cc1.[Cl-].[Cl-].[Cl-].[Cl-].[Cl-].[Cl-].[Cl-].[Cl-].[Ru+2] [RuC2, Tris(N,N′″-bis(2-carboxyethyl)-4,4′:2,2″:4″,4′″-Quaterpyridine-N′N″-dium-N′,N′″) ruthenium(II)octachloride]
growth inhibition in the absence of irradiation [2]: approx. 20%
